# Measured values published in ChEMBL document CHEMBL1148063, “(+/-)-Gelliusines A and B, two diastereomeric brominated tris-indole alkaloids from a deep water new caledonian marine sponge (Gellius or Orina sp.)” (J Nat Prod, 1994).
# Calls of active or inactive are those of the source. No cut-off for these calls is given here.
# Legend:
# Ileum [1] = assay: Inhibition of acetylcholine-induced contraction in guinea pig ileum at 0.2 ug/ml; type: functional, tissue-based; details: Cavia porcellus
# Ileum [2] = assay: Inhibition of acetylcholine-induced contraction in guinea pig ileum at 0.5 ug/ml; type: functional, tissue-based; details: Cavia porcellus
# KB = assay: Cytotoxicity against human KB cells; type: functional, cell-based
# P388 [3] = assay: Cytotoxicity against mouse P388 cells; type: functional, cell-based
# P388 [4] = assay: Cytotoxicity against mouse doxorubicin-resistant P388 cells; type: functional, cell-based
# HT-29 = assay: Cytotoxicity against human HT-29 cells; type: functional, cell-based
# [5] = Cytotoxicity against human NSCLC-N6 cells; type: functional, cell-based
# Ileum [6] = assay: Inhibition of serotonin-induced contraction in guinea pig ileum at 4 ug/ml; type: functional, tissue-based; details: Cavia porcellus
# Cavia porcellus = organism: Cavia porcellus; assay: Antagonist activity at serotonin receptor in guinea pig ileum; type: functional, tissue-based
smiles,measurement,setting,value
CC(C)NCC(O)COc1cccc2ccccc12 (centres undefined),Activity,Ileum [1],inactive
CC(COc1ccccc1)N(CCCl)Cc1ccccc1 (centres undefined),Activity,Ileum [2],inactive
NCCc1c(C(CN)c2c[nH]c3cc(Br)ccc23)[nH]c2cc(C(CN)c3c[nH]c4cc(Br)ccc34)c(O)cc12 (racemic) [GELLIUSINE A],IC50,KB,10 µg/mL
same,IC50,P388 [3],10 µg/mL
same,IC50,P388 [4],10 µg/mL
same,IC50,HT-29,10 µg/mL
same,IC50,[5],10 µg/mL
same,Activity,Ileum [6],Active
same,Activity,Cavia porcellus,Active
